One compound from ChEMBL document CHEMBL5506043, “A β-Carboline Derivate PAD4 Inhibitor Reshapes Neutrophil Phenotype and Improves the Tumor Immune Microenvironment against Triple-Negative Breast Cancer” (J Med Chem, 2024) can be followed below.

The structures appear in SMILES notation. pIC50: −log10 of the molar value. Calls of active or inactive are those of the source. The calls are words filed in the database; no cut-off is given here.

The subject of series [1] is 4T1. The series is described as follows: Antiproliferative activity against mouse 4T1 cells assessed as inhibition of cell growth incubated for 48 hrs by MTT assay. Particulars: 4T1, 48 h. The format is functional, cell-based.
Series [2] can be described thus: Cytotoxicity against human MCF-10A cells assessed as inhibition of cell growth incubated for 48 hrs by MTT assay. The format is toxicity, cell-based. (In general: Tetrazolium dyes change colour on reduction, which living cells bring about.)
Series [3] concerns the target Protein-arginine deiminase type-4 (Mus musculus) (UniProt Q9Z183). The series is described as follows: Inhibition of PAD4 in BALB/c mouse bone marrow neutrophils assessed as reduction in histone H3 citrullination at 2 uM preincubated for 2 hrs followed by calcium ionophore A23187 addition and measured after 2 hrs by Hoechst 33342/Ly6G staining based laser confocal microscopic analysis. As to conditions: Neutrophil, time 4.0 hrs.

The subject of series [4] is MDA-MB-468. The series is described as follows: Antiproliferative activity against human MDA-MB-468 cells assessed as inhibition of cell growth incubated for 48 hrs by MTT assay. Particulars: MDA-MB-468, 48 h. It counts as functional, cell-based.
In series [5] the test system is Mus musculus. The series can be described thus: In vivo inhibition of PAD4 in female BALB/c mouse implanted with mouse orthotopic 4T1-Luc cells assessed as inhibition of histone H3 citrullination in tumor at 10 mg/kg, iv administered via tail vein every 2 days for 9 times for 17 days by immunohistochemical staining based analysis. The format is functional, organism-based. As to conditions: time 17.0 day.

Series [6] is described as follows: Toxicity in female BALB/c mouse implanted with mouse orthotopic 4T1-Luc cells assessed as reduction in kidney weight at 10 mg/kg, iv administered via tail vein every 2 days for 9 times for 17 days. The format is organism-based. As to conditions: in vivo, 408 h, time 17 day.
A short description of series [7]: Terminal half life in male Sprague-Dawley rat at 3.5 mg/kg, iv by LC-MS/MS analysis. The format is ADME, organism-based. As to conditions: in vivo.
Series [8] deals with Neutrophil. The series is described as follows: In vivo inhibition of PAD4 in female BALB/c mouse implanted with mouse orthotopic 4T1-Luc cells assessed as inhibition of neutrophil extracellular traps formation in tumor at 10 mg/kg, iv administered via tail vein every 2 days for 9 times for 17 days by immunohistochemical staining based analysis. As to conditions: time 17.0 day. It counts as functional, organism-based.

Series [9] is described as follows: Tmax in male Sprague-Dawley rat at 3.5 mg/kg, iv by LC-MS/MS analysis. It counts as ADME, organism-based. Particulars: in vivo.
Series [10] in a line: Cmax in male Sprague-Dawley rat at 3.5 mg/kg, iv by LC-MS/MS analysis. The format is ADME, organism-based. Particulars: in vivo.
Series [11] is described as follows: AUC (0 to t) in male Sprague-Dawley rat at 3.5 mg/kg, iv by LC-MS/MS analysis. It counts as ADME, organism-based. Particulars: in vivo.
Series [12] addresses Protein-arginine deiminase type-4 (Mus musculus) (UniProt Q9Z183). The series can be described thus: Inhibition of PAD4 in BALB/c mouse bone marrow neutrophils assessed as reduction in neutrophil extracellular traps formation at 2 uM preincubated for 2 hrs followed by calcium ionophore A23187 addition and measured after 2 hrs by Hoechst 33342/Ly6G staining based laser confocal microscopic analysis. It counts as tissue-based. Particulars: time 4.0 hrs.

Series [13] can be described thus: Antitumor activity against mouse orthotopic 4T1-Luc cells implanted in female BALB/c mouse assessed as tumor growth inhibition at 10 mg/kg, iv administered via tail vein every 2 days for 9 times for 17 days and measured every 2 days relative to control. It counts as functional. As to conditions: 408 h, time 17 day, read-out: TGI.
A short description of series [14]: Toxicity in female BALB/c mouse implanted with mouse orthotopic 4T1-Luc cells assessed as reduction in body weight at 10 mg/kg, iv administered via tail vein every 2 days for 9 times for 17 days and measured every 2 days. It counts as organism-based. Particulars: in vivo, 408 h, time 17 day.
The target of series [15] is Protein-arginine deiminase type-2 (Homo sapiens, UniProt Q9Y2J8). The series is described as follows: Inhibition of PAD2 (unknown origin) using Nalpha-benzoyl-L-arginine ethyl ester as substrate preincubated for 60 mins followed by substrate addition and measured after 90 mins by colorimetric analysis.
Chain of Protein-arginine deiminase type-2 (Q9Y2J8 whole entry): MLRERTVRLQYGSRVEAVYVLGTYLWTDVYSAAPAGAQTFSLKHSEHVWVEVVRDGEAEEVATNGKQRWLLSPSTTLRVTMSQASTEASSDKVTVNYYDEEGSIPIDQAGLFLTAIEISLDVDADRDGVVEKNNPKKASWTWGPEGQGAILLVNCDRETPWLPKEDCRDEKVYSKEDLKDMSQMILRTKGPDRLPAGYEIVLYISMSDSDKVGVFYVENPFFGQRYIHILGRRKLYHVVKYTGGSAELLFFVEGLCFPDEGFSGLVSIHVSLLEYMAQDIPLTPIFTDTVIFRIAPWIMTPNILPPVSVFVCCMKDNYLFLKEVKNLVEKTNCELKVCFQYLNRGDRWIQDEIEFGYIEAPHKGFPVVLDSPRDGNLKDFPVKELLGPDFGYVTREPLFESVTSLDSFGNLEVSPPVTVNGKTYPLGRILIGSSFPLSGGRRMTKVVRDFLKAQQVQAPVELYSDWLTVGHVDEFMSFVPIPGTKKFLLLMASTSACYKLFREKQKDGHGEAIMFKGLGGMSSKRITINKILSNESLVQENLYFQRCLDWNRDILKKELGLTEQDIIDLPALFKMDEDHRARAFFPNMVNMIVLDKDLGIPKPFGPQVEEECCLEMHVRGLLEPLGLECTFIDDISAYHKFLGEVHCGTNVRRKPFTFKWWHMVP
Series [16] in a line: AUC (0 to infinity) in male Sprague-Dawley rat at 3.5 mg/kg, iv by LC-MS/MS analysis. The format is ADME, organism-based. Particulars: in vivo.
The target in series [17] is Protein-arginine deiminase type-4 (Homo sapiens, UniProt Q9UM07). The series is described as follows: Inhibition of PAD4 (unknown origin) using Nalpha-benzoyl-L-arginine ethyl ester as substrate preincubated for 60 mins followed by substrate addition and measured after 90 mins by colorimetric analysis.
Chain of Protein-arginine deiminase type-4 (Q9UM07 whole entry): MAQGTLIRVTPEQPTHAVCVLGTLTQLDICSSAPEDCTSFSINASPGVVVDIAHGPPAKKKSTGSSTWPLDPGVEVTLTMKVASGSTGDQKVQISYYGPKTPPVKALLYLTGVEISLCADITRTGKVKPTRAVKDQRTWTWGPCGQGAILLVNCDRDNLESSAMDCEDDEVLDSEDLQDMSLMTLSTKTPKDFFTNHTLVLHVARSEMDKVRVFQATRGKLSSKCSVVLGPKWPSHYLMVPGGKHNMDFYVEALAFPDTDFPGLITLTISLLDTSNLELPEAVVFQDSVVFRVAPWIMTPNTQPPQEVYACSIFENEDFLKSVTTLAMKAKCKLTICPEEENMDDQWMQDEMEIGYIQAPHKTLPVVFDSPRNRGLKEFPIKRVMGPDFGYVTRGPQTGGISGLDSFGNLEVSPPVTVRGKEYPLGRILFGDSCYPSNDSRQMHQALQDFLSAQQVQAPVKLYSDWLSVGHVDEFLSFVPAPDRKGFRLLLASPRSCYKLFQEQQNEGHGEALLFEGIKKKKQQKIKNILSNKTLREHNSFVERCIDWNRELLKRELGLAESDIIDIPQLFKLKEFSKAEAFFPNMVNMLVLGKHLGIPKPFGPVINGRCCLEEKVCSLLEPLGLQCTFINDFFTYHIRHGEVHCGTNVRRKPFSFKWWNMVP
Series [18] can be described thus: Toxicity in female BALB/c mouse implanted with mouse orthotopic 4T1-Luc cells assessed as reduction in liver weight at 10 mg/kg, iv administered via tail vein every 2 days for 9 times for 17 days. It counts as organism-based. As to conditions: in vivo, 408 h, time 17 day.

Chain of Protein-arginine deiminase type-4 (Mus musculus) (Q9Z183 whole entry): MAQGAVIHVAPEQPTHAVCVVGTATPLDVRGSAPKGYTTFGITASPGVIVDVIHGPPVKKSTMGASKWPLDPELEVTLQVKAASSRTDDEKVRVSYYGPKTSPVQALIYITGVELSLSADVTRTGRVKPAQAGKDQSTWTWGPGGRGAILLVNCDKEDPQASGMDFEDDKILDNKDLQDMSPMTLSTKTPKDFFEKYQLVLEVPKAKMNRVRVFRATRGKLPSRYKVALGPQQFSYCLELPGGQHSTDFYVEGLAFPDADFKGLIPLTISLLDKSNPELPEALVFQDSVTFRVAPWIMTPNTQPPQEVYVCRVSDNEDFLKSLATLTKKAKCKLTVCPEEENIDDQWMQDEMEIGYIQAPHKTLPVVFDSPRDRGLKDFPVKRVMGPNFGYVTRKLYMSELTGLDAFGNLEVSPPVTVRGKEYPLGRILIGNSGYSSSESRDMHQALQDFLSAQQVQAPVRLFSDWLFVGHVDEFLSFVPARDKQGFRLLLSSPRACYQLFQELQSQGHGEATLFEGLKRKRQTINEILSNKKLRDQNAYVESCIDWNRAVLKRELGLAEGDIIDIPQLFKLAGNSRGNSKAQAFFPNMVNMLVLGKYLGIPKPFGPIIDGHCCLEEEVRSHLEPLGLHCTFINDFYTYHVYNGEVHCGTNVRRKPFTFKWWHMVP

Turning to `CN(C)c1ccc2cc(C(=O)N[C@@H](CCCNC(=N)CCl)C(=O)NCc3ccccc3)ccc2c1`, the negative-log IC50 (pIC50) in series [1] is 5.13; in series [4] it was 5.29; in [15], 5.28; in series [17] it was 5.45. Besides, the half-inhibitory concentration (IC50) at 48 h in [2] amounted to 4.3 µM. The inhibition result in series [3], in series [5], in [8] and in [12] was “Active” in each case. The Activity result in series [6] was “Toxic”; in [14], “Non-Toxic”; in series [18], “Toxic”. Besides, the “beta t1/2” value in [7] amounted to 7.8 min. Besides, in series [9], the time of peak concentration (Tmax) was 4.8 min. The same compound showed a Cmax in series [10] of 251.2 ng/mL. In [11], this compound displayed an area under the curve AUC(0-t) of 14.9 ng·h/mL. Besides, the inhibition in vivo at 10 mg/kg in series [13] was 36.2%. In series [16], this compound returned an AUC of 17214.17 ng·h/mL.

The pIC50 is the negative decadic logarithm of the IC50, by convention in mol/L. As a reminder, the IC50 is the point on the concentration scale where inhibition reaches its midpoint. The Tmax is the time at which the peak concentration occurs. For orientation: Cmax means the highest concentration seen after dosing. What is called AUC(0-t) is the area under the concentration-time curve up to a stated or last time point. Read a high AUC(0-t) as more exposure. Usually AUC stands for the area under the concentration-time curve, a measure of exposure. The low end stands for low exposure, the high end for high exposure.
